For experiment [1], the system named is SCN1a+/− (Dravet) mice. As to the kind of experiment: CD11b+ activated microglia immunostaining score in brain sections, murine model of Dravet syndrome. It counts as in vivo, mouse. The settings on record: for CD11b Avg Score, Genu / CD11b Avg Score, PP / CD11b Avg Score, PP + Genu: Het mice, s.c. once daily P7 to P35-P37, FFA 15 mg/kg, diazepam 10 mg/kg; for CD11b Avg Score, Genu: genu of corpus callosum; for CD11b Avg Score, Genu / CD11b Avg Score, PP: scale 0-5; for CD11b Avg Score, PP: perforant pathway of hippocampus; for CD11b Avg Score, PP + Genu: sum of perforant pathway and genu, maximum 10, p = 0.05 Het FFA vs Het vehicle; for effect on CD11b+ activated microglia vs vehicle (saline): genu and perforant pathway of P35-P37 SCN1a+/− mice, 2-tail unequal variance t-test, FIG. 4. An excerpt: (§1) Epilepsy is increasingly recognized as a disease of white matter pathology and damage, see Hatton, S. N. et al [Epilepsy Currents 2021 21:27-29]. To test whether fenfluramine reduced pathology and damage to myelin, a mouse model of Dravet syndrome was used. […] Heterozygous Dravet animals used in the studies reported in Examples 2 and 3 are Scn1atm1Kea 50% C57BL/6J, 50% 129S6/SvEvTac background strain mice generated as described in Miller, A. R. et al. [Genes Brain Behav. 2014 February; 13(2): 163-172]. Briefly, a heterozygous Scn1a+/− null allele was generated by targeted deletion of the first coding exon in TL1 ES cells (12956/SvEvTac). These mice were established and maintained as a co-isogenic strain on the 12956/SvEvTac (129) background. […] P ranges, stated as, e.g. P35-P37, indicate the days postnatal of the study animals Normal axonodendritic, axonosomatic and axonoaxonic synaptic pruning occurs in all mice and peaks at postnatal P21. Postnatal ages for the study animals were chosen to avoid periods of high natural demyelination and microglial activity.
(§2) In Heterozygous Animals, drug or saline sham treatment began at age P7 (i.e., 7 days after birth) with subcutaneous administration of drug or saline injected via insulin syringes.
(§3) At day 7 all pups in each litter were administered an injection volume of 10 μl/g body weight once per day containing: 1) fenfluramine at 15 mg/kg; 2) diazepam at 10 mg/kg; or 3) vehicle (0.9% saline solution), each injection volume based on body weight.
(§4) The administration of each intervention continued every day until age P35-P37, at which time animals were sacrificed to obtain blood and brain tissues which amounted to an aggregate of 28 to 30 days of once daily dosing.
Vector ImPRESS-AP alkaline phosphatase conjugated anti-rabbit IgG (Vector Laboratories) was applied in the secondary detection step with Vector Blue AP substrate as the chromogen. Nuclear Fast Red was applied as a non-specific tissue counterstain before dehydration, clearing, and coverslip mounting steps. Vector Blue signals within finished slides were visualized with the DAPI (UV) excitation/emission channel on an Echo Revolve fluorescence microscope under the 20× objective. Non-specific Nuclear Fast Red staining was visualized under the Texas Red excitation/emission channel to provide anatomical contexts to the overlaid CD11b signals. Perfusion fixed sagittal 5 um FFPE brain sections within approximately 300 um from the midline of the right brains of the P35-P37 wildtype and SCN1A heterozygous 50% B6/50% 129S6 mice from the Fintepla/Diazepam/Saline comparator study were examined for CD11b+ microglia.
A 0-5 ascending pathologist scale was applied in scoring CD11b+ microglia in the perforant pathway of the hippocampus following the hippocampal fissure and murine white matter in the front knob, “genu,” of the corpus callosum (CC). The CC is an elongated midline structure composed of 200-800 million horizontal interconnecting cortical areas. The mature CC contains both myelinated and unmyelinated fibers as well as glial cells (astrocytes and oligodendrocytes), and neurons. The human CC has been divided into five anatomical regions, which include from front to back, the rostrum, the genu, the body or trunk-often subdivided into anterior, middle and posterior body-the isthmus, and the splenium. Most neurons in the callosal fibers release excitatory amino acids (glutamate or aspartate), however a small proportion of GABAergic neurons have been identified in mammals
The scores of the genu and perforant pathway were summed for each animal for a maximum possible score of 10. This antibody preferentially detects activated microglia over surveilling, quiescent microglia across human, rat, and mouse species. Normal, healthy mice have more basal microglial activation in the CNS compared to the normal human CNS.

Experiment [2] has as its system SCN1a+/− (Dravet) mice. As to the kind of experiment: DMBP (degraded myelin basic protein) immunostaining score of myelin debris in brain sections, murine model of Dravet syndrome. Type of experiment: in vivo, mouse. The following applies: for DMBP Avg Score, Ctx / DMBP Avg Score, Hipp / DMBP Avg Score, Hipp + Ctx: Het mice, s.c. once daily P7 to P35-P37, FFA 15 mg/kg, diazepam 10 mg/kg; for DMBP Avg Score, Ctx: cortex; for DMBP Avg Score, Ctx / DMBP Avg Score, Hipp: scale 0-5; for DMBP Avg Score, Hipp: hippocampus, p = 0.00015 Het FFA vs Het vehicle; for DMBP Avg Score, Hipp + Ctx: sum of hippocampus and cortex, maximum 10, p = 0.01 Het FFA vs Het vehicle; for effect on myelin debris (D-MBP) score vs vehicle (saline): hippocampus and cortex of P35-P37 SCN1a+/− mice, 2-tail unequal variance t-test, FIG. 2.
Text: as §1, §2, §3, §4
Mice at the end of the dosing period were isoflurane anaesthetized and blood was drawn through cardiac ventricular puncture without perforating the heart or vessels for subsequent perfusion fixation. Blood was processed for plasma and stored at −80C. After creating an incision in the hepatic circulation to allow perfusates an exit point, mice were flushed of remaining blood with 6 mL ice cold phosphate buffered saline through the left ventricle of the heart. Mice were then perfusion fixed with an additional 6 mL of ice cold 4% paraformaldehyde before carefully harvesting right brains into 10% neutral buffered formalin for 24 hours before transferring into phosphate buffered saline with 0.02% sodium azide as an antimicrobial preservative. Right brains were then embedded to paraffin blocks and processed as formalin fixed, paraffin embedded (FFPE) 5 μm thick sagittal sections on glass slides. These FFPE tissues were immunostained, processed, and imaged for degraded myelin and inflammatory microglia.
DMBP antibody (“degraded” Myelin Basic Protein, Anti-Myelin Basic Protein, Millipore Sigma antibody, formerly Sigma AB5864) was applied at 1:1000 dilution with no antigen retrieval. This antibody preferentially detects debris of myelin degradation in human samples without cross reacting to normal myelin. Vector ImPRESS-AP alkaline phosphatase conjugated anti-rabbit IgG (Vector Laboratories) was applied in the secondary detection step with Vector Blue AP substrate as the chromogen. Nuclear Fast Red was applied as a non-specific tissue counterstain before dehydration, clearing, and coverslip mounting steps. Vector Blue signals within finished slides were visualized with the DAPI (UV) excitation/emission channel on an Echo Revolve fluorescence microscope under the 20× objective. Non-specific Nuclear Fast Red staining was visualized under the Texas Red excitation/emission channel to provide anatomical contexts to the overlaid DMBP signals.

Another experiment has as its target T1, RNF43 (Homo sapiens, UniProt Q68DV7).
T1 construct: arrays of expression vectors, encoding full-length human plasma membrane and tethered secreted proteins; expressed in transfected cells; host or cells: HEK293
T1 sequence (Q68DV7 24-783): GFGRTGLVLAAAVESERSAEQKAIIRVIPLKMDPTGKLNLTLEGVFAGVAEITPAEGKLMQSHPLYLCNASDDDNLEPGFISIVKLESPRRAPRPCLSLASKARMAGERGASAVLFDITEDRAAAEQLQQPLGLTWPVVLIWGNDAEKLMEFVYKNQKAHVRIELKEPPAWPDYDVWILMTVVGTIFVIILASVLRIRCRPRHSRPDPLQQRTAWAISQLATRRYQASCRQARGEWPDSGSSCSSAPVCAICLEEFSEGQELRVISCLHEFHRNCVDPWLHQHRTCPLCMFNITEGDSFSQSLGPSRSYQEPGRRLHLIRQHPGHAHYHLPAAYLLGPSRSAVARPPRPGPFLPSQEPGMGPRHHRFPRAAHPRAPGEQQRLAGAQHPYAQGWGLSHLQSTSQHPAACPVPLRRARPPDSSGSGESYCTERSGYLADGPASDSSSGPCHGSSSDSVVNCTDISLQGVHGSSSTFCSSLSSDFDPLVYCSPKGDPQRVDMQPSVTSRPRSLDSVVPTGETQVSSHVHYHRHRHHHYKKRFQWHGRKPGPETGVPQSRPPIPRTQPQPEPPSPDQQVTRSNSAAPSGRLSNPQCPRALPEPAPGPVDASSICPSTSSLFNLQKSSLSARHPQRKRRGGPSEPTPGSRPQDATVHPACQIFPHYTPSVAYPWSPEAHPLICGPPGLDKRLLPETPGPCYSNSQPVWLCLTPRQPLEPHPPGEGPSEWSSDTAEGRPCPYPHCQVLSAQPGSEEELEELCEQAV
As to the kind of experiment: 3H-fenfluramine binding to proteins expressed on reverse-transfected HEK293 cell arrays (phosphorimaging). The settings on record: tritium labeled fenfluramine, 1 or 5 micromolar in confirmation; HEK293 cells; FIG. 1. How it is done:
(§5) Briefly, arrays of expression vectors, encoding full-length human plasma membrane and tethered secreted proteins, were spotted onto coated slides, then HEK293 cells were grown over the top of the spots and became reverse-transfected resulting in cell surface expression of each respective protein at distinct slide locations. Tritium labeled fenfluramine was applied and specific binding analyzed and confirmed using a phosphorimaging technique. […] Confirmation was achieved by repeating the study with vectors encoding RNF43 and sigma-1 receptor proteins spotted onto slides, upon which HEK293 cells were reverse-transfected. Identical slides were treated before or after cell fixation with 1 micromolar or 5 micromolar 3H-fenfluramine, 20 nanomolar 3H-naloxone, or no compound (n=2 slides per treatment).

The next experiment concerns the target T2, sigma-1 receptor (Homo sapiens, UniProt Q99720).
T2 construct: arrays of expression vectors, encoding full-length human plasma membrane and tethered secreted proteins; expressed in transfected cells; host or cells: HEK293
The experiment is described as above. The following applies: tritium labeled fenfluramine, 1 or 5 micromolar in confirmation; HEK293 cells. How it is done:
as §5

The test system of a further experiment is SCN1a+/− (het) mice. As to the kind of experiment: Kaplan Meier estimation of survival in SCN1a+/− (het) mice. It counts as in vivo, mouse. The settings on record: P1-P40 SCN1a+/− (het) mice, compared to both placebo and diazepam treatment; FIG. 6.
Text: as §1

T2 sequence (Q99720 whole entry): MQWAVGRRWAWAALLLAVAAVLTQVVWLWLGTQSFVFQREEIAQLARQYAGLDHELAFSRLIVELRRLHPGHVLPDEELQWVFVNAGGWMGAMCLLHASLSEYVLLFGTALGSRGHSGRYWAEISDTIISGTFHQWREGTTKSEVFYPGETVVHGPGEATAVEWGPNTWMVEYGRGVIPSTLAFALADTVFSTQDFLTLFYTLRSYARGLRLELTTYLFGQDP

In the case of `CN1C(=O)CN=C(c2ccccc2)c2cc(Cl)ccc21` [Diazepam, diazepam], in the experiment with SCN1a+/− (Dravet) mice [1], the “CD11b Avg Score, Genu” value turned out to be 3.00; the “CD11b Avg Score, PP” value is on record as 3.67; the “CD11b Avg Score, PP + Genu” value is 6.67; the “effect on CD11b+ activated microglia vs vehicle (saline)” value is listed as “not significant”. Further, in the experiment on SCN1a+/− (Dravet) mice [2], the “DMBP Avg Score, Ctx” value was 2.44; the “DMBP Avg Score, Hipp” value is 3.22; the “DMBP Avg Score, Hipp + Ctx” value was found to be 5.67; the “effect on myelin debris (D-MBP) score vs vehicle (saline)” value was “not significant”.
Take `CCNC(C)Cc1cccc(C(F)(F)F)c1` (racemic) [FFA, (RS)-N-ethyl-1-[3-(trifluoromethyl)phenyl]propan-2-amine]: in the experiment on SCN1a+/− (Dravet) mice [1], the “CD11b Avg Score, Genu” value is listed as 2.54; the “CD11b Avg Score, PP” value stood at 2.77; the “CD11b Avg Score, PP + Genu” value came out at 5.31; the “effect on CD11b+ activated microglia vs vehicle (saline)” value is given as “reduced activated microglia”. Also, the “binding interaction with RNF43” value on RNF43 was “interactions were identified in the primary screen”. Further, the “binding interaction with sigma-1” value at sigma-1 receptor was “interactions were identified in the primary screen”. Moreover, in the experiment on SCN1a+/− (het) mice, the “probability of survival over time” value is reported as “increases the probability of survival”. For the same compound, in the experiment with SCN1a+/− (Dravet) mice [2], the “DMBP Avg Score, Ctx” value was determined as 2.54; the “DMBP Avg Score, Hipp” value is recorded as 2.62; the “DMBP Avg Score, Hipp + Ctx” value is given as 5.15; the “effect on myelin debris (D-MBP) score vs vehicle (saline)” value was “significantly reduced the myelin debris (D-MBP) score”.

(Values after US20230078820A1, “FE[…] TREATMENT OF DEMYELINATING DISEASES AND CONDITIONS” (ZOGENIX INTERNATIONAL LIMITED, priority 2021, published 2023).)
